Assay results taken from patent US20100311714A1, “1H-IMIDAZO[4,5-c]QUINOLINONE COMPOUNDS” (priority 2009, published 2010).
Where two headings read alike, the source gives them in different places.

Tests used:
[1] = test system: PKB Ser473 phosphorylation in Rat1-myr-HA-p110 alpha cells; experiment: Reverse protein array, PKB Ser473 phosphorylation in Rat1-myr-HA-p110 alpha cells; format: cell-based; conditions: Rattus norvegicus, 0.5 h, 30 minutes compound incubation, read-out: p-PKB/IC50_alpha
[2] = test system: S6 Ribosomal Protein phosphorylation Ser235/236 in TSC1 null mouse embryo fibroblast (MEF) cells; experiment: Reverse protein array, S6 Ribosomal Protein phosphorylation in TSC1 null MEF cells; format: cell-based; conditions: 1 h, TSC1-/- MEFs, 60 minutes
Procedure, shortened: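 Phospho-S6 (Ser235/236) was quantified by reverse protein array of cell lysates with a phospho-specific primary antibody. […]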

Structure (SMILES)	IC50 [1] [nM]	IC50 ([2]; read-out: p-S6 IC50) [nM]	IC50 ([2]; read-out: p-S6) [nM]
CNc1ncc(-c2ccc3ncc4c(c3c2)n(-c2ccc(C)nc2C)c(=O)n4C)cn1 [Example 14.4, 1-(2,6-Dimethyl-pyridin-3-yl)-3-methyl-8-(2-methylamino-pyrimidin-5-yl)-1,3-dihydro-imidazo[4,5-c]quinolin-2-one]	16.2	7	
Cc1ncccc1-n1c(=O)n(C)c2cnc3ccc(-c4cnc5c(ccn5C)c4)cc3c21 [Example 2.14, 3-Methyl-1-(2-methyl-pyridin-3-yl)-8-(1-methyl-1H-pyrrolo[2,3-b]pyridin-5-yl)-1,3-dihydro-imidazo[4,5-c]quinolin-2-one]	7.38		8.74
CNc1ncc(-c2ccc3ncc4c(c3c2)n(-c2ccc(F)nc2C)c(=O)n4C)cc1F [Example 7.12, 8-(5-Fluoro-6-methylamino-pyridin-3-yl)-1-(6-fluoro-2-methyl-pyridin-3-yl)-3-methyl-1,3-dihydro-imidazo[4,5-c]quinolin-2-one]	6.4		
CNc1cc(-c2ccc3ncc4c(c3c2)n(-c2ccc(N(C)C)nc2C)c(=O)n4C)cnc1C [Example 19.2, 1-(6-Dimethylamino-2-methyl-pyridin-3-yl)-3-methyl-8-(6-methyl-5-methylamino-pyridin-3-yl)-1,3-dihydro-imidazo[4,5-c]quinolin-2-one]	< 4.57	1.1	
COCCN(C)c1ccc(-n2c(=O)n(C)c3cnc4ccc(-c5cnc(CO)c(OC)c5)cc4c32)c(C)n1 [Example 15.9, 8-(6-Hydroxymethyl-5-methoxy-pyridin-3-yl)-1-{6-[(2-methoxy-ethyl)-methyl-amino]-2-methyl-pyridin-3-yl}-3-methyl-1,3-dihydro-imidazo[4,5-c]quinolin-2-one]	10.8		
CNc1ncc(-c2ccc3ncc4c(c3c2)n(-c2cnc(F)cc2C)c(=O)n4C)cn1 [Example 16.3, 1-(6-Fluoro-4-methyl-pyridin-3-yl)-3-methyl-8-(2-methylamino-pyrimidin-5-yl)-1,3-dihydro-imidazo[4,5-c]quinolin-2-one]	64.1	22	
Cc1cc(F)ncc1-n1c(=O)n(C)c2cnc3ccc(-c4cnc5c(ccn5C)c4)cc3c21 [Example 16.5, 1-(6-Fluoro-4-methyl-pyridin-3-yl)-3-methyl-8-(1-methyl-1H-pyrrolo[2,3-b]pyridin-5-yl)-1,3-dihydro-imidazo[4,5-c]quinolin-2-one]	18.4	12.6	
COc1ccc(-n2c(=O)n(C)c3cnc4ccc(-c5ccc6nccn6c5)cc4c32)c(OC)n1 [Example 8.10, 1-(2,6-Dimethoxy-pyridin-3-yl)-8-imidazo[1,2-a]pyridin-6-yl-3-methyl-1,3-dihydro-imidazo[4,5-c]quinolin-2-one]	20.5	6.8	
Cc1ccc(-n2c(=O)n(C)c3cnc4ccc(-c5cnc(N(C)C)nc5)cc4c32)c(C)n1 [Example 14.3, 8-(2-Dimethylamino-pyrimidin-5-yl)-1-(2,6-dimethyl-pyridin-3-yl)-3-methyl-1,3-dihydro-imidazo[4,5-c]quinolin-2-one]	39	10	
CCOc1ccc(-c2ccc3ncc4c(c3c2)n(-c2ccc(OCCOC)nc2C)c(=O)n4C)cn1 [Example 13.1, 8-(6-Ethoxy-pyridin-3-yl)-1-[6-(2-methoxy-ethoxy)-2-methyl-pyridin-3-yl]-3-methyl-1,3-dihydro-imidazo[4,5-c]quinolin-2-one]	17	18	
CCOCc1cc(-c2ccc3ncc4c(c3c2)n(-c2ccc(F)nc2C)c(=O)n4C)cnc1N [Example 7.15, 8-(6-Amino-5-ethoxymethyl-pyridin-3-yl)-1-(6-fluoro-2-methyl-pyridin-3-yl)-3-methyl-1,3-dihydro-imidazo[4,5-c]quinolin-2-one]	20.1	8	
COCCOc1ccc(-n2c(=O)n(C)c3cnc4ccc(-c5cnc(N)c(C(F)(F)F)c5)cc4c32)c(C)n1 [Example 13.2, 8-(6-Amino-5-trifluoromethyl-pyridin-3-yl)-1-[6-(2-methoxy-ethoxy)-2-methyl-pyridin-3-yl]-3-methyl-1,3-dihydro-imidazo[4,5-c]quinolin-2-one]	< 4.57	1	
CCNc1cc(-c2ccc3ncc4c(c3c2)n(-c2ccc(C)nc2C)c(=O)n4C)cnc1C [Example 14.6, 1-(2,6-Dimethyl-pyridin-3-yl)-8-(5-ethylamino-6-methyl-pyridin-3-yl)-3-methyl-1,3-dihydro-imidazo[4,5-c]quinolin-2-one]	5.2	2	
CNc1cc(-c2ccc3ncc4c(c3c2)n(-c2ccc(C(F)(F)F)nc2C)c(=O)n4C)cnc1CO [Example 33.2, 8-(6-Hydroxymethyl-5-methylamino-pyridin-3-yl)-3-methyl-1-(2-methyl-6-trifluoromethyl-pyridin-3-yl)-1,3-dihydro-imidazo[4,5-c]quinolin-2-one]	5.2	2	
CNc1cc(-c2ccc3ncc4c(c3c2)n(-c2ccc(F)nc2C)c(=O)n4C)cnc1CO [Example 7.11, 1-(6-Fluoro-2-methyl-pyridin-3-yl)-8-(6-hydroxymethyl-5-methylamino-pyridin-3-yl)-3-methyl-1,3-dihydro-imidazo[4,5-c]quinolin-2-one]	12.6	7	
CCNc1cc(-c2ccc3ncc4c(c3c2)n(-c2ccc(F)nc2C)c(=O)n4C)cnc1CO [Example 7.9, 8-(5-Ethylamino-6-hydroxymethyl-pyridin-3-yl)-1-(6-fluoro-2-methyl-pyridin-3-yl)-3-methyl-1,3-dihydro-imidazo[4,5-c]quinolin-2-one]	< 4.57	5	
COc1nc(N2CCNCC2)ccc1-n1c(=O)n(C)c2cnc3ccc(-c4cnc(N(C)C)nc4)cc3c21 [Example 9.4, 8-(2-Dimethylamino-pyrimidin-5-yl)-1-(2-methoxy-6-piperazin-1-yl-pyridin-3-yl)-3-methyl-1,3-dihydro-imidazo[4,5-c]quinolin-2-one]	18	6	
CCNc1cc(-c2ccc3ncc4c(c3c2)n(-c2cnc(F)cc2C)c(=O)n4C)cnc1C [Example 16.2, 8-(5-Ethylamino-6-methyl-pyridin-3-yl)-1-(6-fluoro-4-methyl-pyridin-3-yl)-3-methyl-1,3-dihydro-imidazo[4,5-c]quinolin-2-one]	21.8	6	
COCC(=O)Nc1ccc(-n2c(=O)n(C)c3cnc4ccc(-c5cncc(OC(C)C)c5)cc4c32)c(C)n1 [Example 20.5, N-{5-[8-(5-Isopropoxy-pyridin-3-yl)-3-methyl-2-oxo-2,3-dihydro-imidazo[4,5-c]quinolin-1-yl]-6-methyl-pyridin-2-yl}-2-methoxy-acetamide]	90.2		
COc1ccc(-c2ccc3ncc4c(c3c2)n(-c2cccnc2)c(=O)n4C)cc1OC [Example 5.2, 8-(3,4-Dimethoxy-phenyl)-3-methyl-1-pyridin-3-yl-1,3-dihydro-imidazo[4,5-c]quinolin-2-one]	18.1		
CNC(=O)c1cc(-c2ccc3ncc4c(c3c2)n(-c2ccc(F)nc2C)c(=O)n4C)cnc1N [Example 7.14, 2-Amino-5-[1-(6-fluoro-2-methyl-pyridin-3-yl)-3-methyl-2-oxo-2,3-dihydro-1H-imidazo[4,5-c]quinolin-8-yl]-N-methyl-nicotinamide]	15.2		
COc1ccc(-c2ccc3ncc4c(c3c2)n(-c2cccnc2)c(=O)n4C)cn1 [Example 5.4, 8-(6-Methoxy-pyridin-3-yl)-3-methyl-1-pyridin-3-yl-1,3-dihydro-imidazo[4,5-c]quinolin-2-one]	92.4		
COc1ccc(-c2ccc3ncc4c(c3c2)n(-c2ncccc2C)c(=O)n4C)cn1 [Example 3.13, 8-(6-Methoxy-pyridin-3-yl)-3-methyl-1-(3-methyl-pyridin-2-yl)-1,3-dihydro-imidazo[4,5-c]quinolin-2-one]	308		
Cc1cccnc1-n1c(=O)n(C)c2cnc3ccc(-c4cnc5ccccc5c4)cc3c21 [Example 3.8, 3-Methyl-1-(3-methyl-pyridin-2-yl)-8-quinolin-3-yl-1,3-dihydro-imidazo[4,5-c]quinolin-2-one]	54.9		
COc1ncccc1-n1c(=O)n(C)c2cnc3ccc(-c4ccc(F)nc4)cc3c21 [Example 1.8, 8-(6-Fluoro-pyridin-3-yl)-1-(2-methoxy-pyridin-3-yl)-3-methyl-1,3-dihydro-imidazo[4,5-c]quinolin-2-one]	97.6		
COc1cc(-c2ccc3ncc4c(c3c2)n(-c2ccc(N(C)C)nc2C)c(=O)n4C)cnc1CO [Example 19.4, 1-(6-Dimethylamino-2-methyl-pyridin-3-yl)-8-(6-hydroxymethyl-5-methoxy-pyridin-3-yl)-3-methyl-1,3-dihydro-imidazo[4,5-c]quinolin-2-one]	6.8		
Cc1nc(N(C)C)ccc1-n1c(=O)n(C)c2cnc3ccc(-c4cncc(N)c4)cc3c21 [Example 19.5, 8-(5-Amino-pyridin-3-yl)-1-(6-dimethylamino-2-methyl-pyridin-3-yl)-3-methyl-1,3-dihydro-imidazo[4,5-c]quinolin-2-one]	6.9		
CNc1ncc(-c2ccc3ncc4c(c3c2)n(-c2ccc(F)nc2C)c(=O)n4C)cc1C(F)(F)F [Example 7.13, 1-(6-Fluoro-2-methyl-pyridin-3-yl)-3-methyl-8-(6-methylamino-5-trifluoromethyl-pyridin-3-yl)-1,3-dihydro-imidazo[4,5-c]quinolin-2-one]	< 4.57		
COc1ccc(-n2c(=O)n(C)c3cnc4ccc(-c5cnc(CO)c(OC)c5)cc4c32)c(C)n1 [Example 11.8, 8-(6-Hydroxymethyl-5-methoxy-pyridin-3-yl)-1-(6-methoxy-2-methyl-pyridin-3-yl)-3-methyl-1,3-dihydro-imidazo[4,5-c]quinolin-2-one]	7.8		
